Target: T1, mouse Tas2r105 (Mus musculus, UniProt Q9JKT4)
T1 construct: expressed in transfected cells; host or cells: HEK293T-Gα16gust44
T1 sequence (Q9JKT4 1-300): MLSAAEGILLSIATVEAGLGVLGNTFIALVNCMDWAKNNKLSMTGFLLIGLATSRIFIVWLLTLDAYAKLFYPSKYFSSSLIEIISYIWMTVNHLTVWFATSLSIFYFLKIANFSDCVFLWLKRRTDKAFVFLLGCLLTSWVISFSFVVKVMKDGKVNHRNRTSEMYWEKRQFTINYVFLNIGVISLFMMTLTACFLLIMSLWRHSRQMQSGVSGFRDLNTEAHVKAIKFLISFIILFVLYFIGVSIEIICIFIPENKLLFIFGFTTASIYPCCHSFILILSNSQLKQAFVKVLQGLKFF
Test: Calcium imaging assay (FLIPR), HEK293T-Gα16gust44 cells transfected with mouse Tas2r105
Type: cell-based
Description: This set of bile acids was chosen because of their commercial availability in high purities, their diversity within the class of bile acids and their previous detection and quantitation in human blood. Stock solutions were prepared in DMSO.
As basal growth medium for the HEK293T-Gα16gust44 cell line[17],[59] served Dulbecco’s modified eagle medium (DMEM) (Thermo Fisher Scientific, Darmstadt, Germany) supplemented with 10 % fetal bovine serum (Sigma-Aldrich, Steinheim, Germany), 2 mM L-glutamine (Sigma-Aldrich, Steinheim, Germany), 100 units/ml penicillin (Sigma Aldrich, Steinheim, Germany) and 100 µg/ml streptomycin (Sigma Aldrich, Steinheim, Germany). Growth conditions were 37 °C, 5 % CO2 and saturated air-humidity[60].
HEK293T-Gα16gust44 cells were seeded on poly-D-lysine (10 µg/ml) coated 96-well plates to reach a confluence of 40-60 % the next day. For transient transfection 150 ng of plasmid DNA containing the receptor of interest and 0.3 µl lipofectamine 2000 (Thermo Fisher Scientific, Darmstadt, Germany) per well were used and transfection took place according to the manual of lipofectamine 2000. […] The empty vector DNA (mock) was transfected as negative control[14],[41].
Cells were loaded using the calcium-sensitive fluorescent dye Fluo-4-AM (Abcam, Cambridge, Great Britain) in the presence of 2.5 mM probenecid (Sigma-Aldrich, Steinheim, Germany) the day after transfection[13],[41]. 1 h after loading, cells were washed with C1 buffer using a BioTek Cell Washer, incubated in the dark for half an hour and washed again. For automated agonist application and measurement of fluorescence changes, a FLIPR^TETRA device (Molecular Devices, San José, United States) was used. Viability of cells was tested by application of 100 nM Somatostatin 14 (Bachem, Bubendorf, Switzerland)[42].
Measured data were negative control corrected by subtracting the signal of the mock-transfected cells and exported to Microsoft Excel using the FLIPR software ScreenWorks 4.2. In Microsoft Excel software, standardization of maximum fluorescence intensities to the basal fluorescence and normalization to the buffer-only control was done to calculate the relative fluorescence changes (ΔF/F).
Initial screening experiments performed in duplicate wells were confirmed by at least one replication and representative traces were selected for display. All dose-response relationships were determined by three independent experiments (biological replicates) performed in duplicates (technical replicates). Threshold concentrations, defined as lowest substance concentrations leading to statistically significant elevated fluorescence changes in receptor-transfected cells compared with empty vector-transfected cells, were determined using SigmaPlot with Student’s t-test to evaluate statistical significance (p < 0.01).

## C[C@H](CCC(=O)O)[C@H]1CC[C@H]2[C@@H]3CC[C@@H]4C[C@H](O)CC[C@]4(C)[C@H]3CC[C@]12C [Lithocholic Acid, lithocholic acid]
Time 0 s
  RLU: 0 RLU
Time 2 s
  RLU: -19.9183 RLU
Time 4 s
  RLU: 19.2865 RLU
Time 6 s
  RLU: -6.64 RLU
Time 8 s
  RLU: 9.805 RLU
Time 12 s
  RLU: 17.7969 RLU
Time 14 s
  RLU: 8.271 RLU
Time 16 s
  RLU: -2.182 RLU
Time 18 s
  RLU: 5.571 RLU
Time 18.781 s
  RLU: 8.9 RLU
Time 20.781 s
  RLU: -20.4639 RLU
Time 22.781 s
  RLU: -20.313 RLU
Time 24.781 s
  RLU: 13.8358 RLU
Time 26.781 s
  RLU: 13.4767 RLU
Time 28.781 s
  RLU: 5.266 RLU
Time 30.781 s
  RLU: -9.837 RLU
Time 32.781 s
  RLU: 8.574 RLU
Time 34.781 s
  RLU: 27.1912 RLU
Time 36.781 s
  RLU: 18.0239 RLU
Time 38.781 s
  RLU: 6.659 RLU
Time 40.781 s
  RLU: 53.7499 RLU
Time 42.781 s
  RLU: 49.1517 RLU
Time 44.781 s
  RLU: 47.3635 RLU
Time 46.781 s
  RLU: 50.4831 RLU
Time 48.781 s
  RLU: 74.4289 RLU
Time 50.781 s
  RLU: 93.6056 RLU
Time 52.781 s
  RLU: 63.4969 RLU
Time 54.781 s
  RLU: 82.9174 RLU
Time 56.781 s
  RLU: 91.8724 RLU
Time 58.781 s
  RLU: 82.9428 RLU
Time 60.781 s
  RLU: 110.605 RLU
Time 62.781 s
  RLU: 104.538 RLU
Time 64.781 s
  RLU: 112.529 RLU
Time 66.781 s
  RLU: 137.104 RLU
Time 68.781 s
  RLU: 132.36 RLU
Time 70.781 s
  RLU: 132.904 RLU
Time 72.781 s
  RLU: 132.041 RLU
Time 74.781 s
  RLU: 144.653 RLU
Time 76.781 s
  RLU: 172.509 RLU
Time 78.781 s
  RLU: 142.279 RLU
Time 80.781 s
  RLU: 151.243 RLU
Time 82.781 s
  RLU: 167.63 RLU
Time 84.781 s
  RLU: 195.966 RLU
Time 86.781 s
  RLU: 203.204 RLU
Time 88.781 s
  RLU: 204.712 RLU
Time 90.781 s
  RLU: 215.59 RLU
Time 92.781 s
  RLU: 209.022 RLU
Time 94.781 s
  RLU: 228.864 RLU
Time 96.781 s
  RLU: 184.288 RLU
Time 98.781 s
  RLU: 227.541 RLU
Time 100.781 s
  RLU: 248.863 RLU
Time 102.781 s
  RLU: 222.595 RLU
Time 104.781 s
  RLU: 217.502 RLU
Time 106.781 s
  RLU: 225.971 RLU
Time 108.781 s
  RLU: 244.356 RLU
Time 110.781 s
  RLU: 261.979 RLU
Time 112.781 s
  RLU: 241.216 RLU
Time 114.781 s
  RLU: 243.367 RLU
Time 116.781 s
  RLU: 246.887 RLU
Time 118.781 s
  RLU: 257.566 RLU
Time 120.781 s
  RLU: 260.092 RLU
Time 122.781 s
  RLU: 284.505 RLU
Time 124.781 s
  RLU: 270.165 RLU
Time 126.781 s
  RLU: 278.83 RLU
Time 128.781 s
  RLU: 309.382 RLU
Time 130.781 s
  RLU: 309.382 RLU
Time 132.781 s
  RLU: 310.252 RLU
Time 134.781 s
  RLU: 282.326 RLU
Time 136.781 s
  RLU: 279.582 RLU
Time 137.562 s
  RLU: 296.261 RLU
Time 143.562 s
  RLU: 310.291 RLU
Time 149.562 s
  RLU: 291.585 RLU
Time 155.562 s
  RLU: 301.792 RLU
Time 161.562 s
  RLU: 299.079 RLU
Time 167.562 s
  RLU: 303.398 RLU
Time 173.562 s
  RLU: 315.378 RLU
Time 179.562 s
  RLU: 314.187 RLU
Time 185.562 s
  RLU: 308.746 RLU
Time 191.562 s
  RLU: 287.017 RLU
Time 197.562 s
  RLU: 315.242 RLU
Time 203.562 s
  RLU: 299.639 RLU
Time 209.562 s
  RLU: 295.067 RLU
Time 215.562 s
  RLU: 316.647 RLU
Time 221.562 s
  RLU: 272.857 RLU
Time 227.562 s
  RLU: 314.132 RLU
Time 233.562 s
  RLU: 269.771 RLU
Time 239.562 s
  RLU: 270.901 RLU
Time 245.562 s
  RLU: 241.175 RLU
Time 293.562 s
  RLU: 236.399 RLU
Time 299.562 s
  RLU: 209.696 RLU
Time 305.562 s
  RLU: 212.529 RLU
Time 311.562 s
  RLU: 180.625 RLU
Time 317.562 s
  RLU: 178.726 RLU
Time 323.562 s
  RLU: 162.84 RLU
Time 329.562 s
  RLU: 185.237 RLU
Time 335.562 s
  RLU: 178.412 RLU
Time 341.562 s
  RLU: 163.583 RLU
Time 347.562 s
  RLU: 148.887 RLU
Time 353.562 s
  RLU: 153.613 RLU
Time 359.562 s
  RLU: 155.912 RLU
P < 0.01 vs empty vector
  Activation threshold concentration Tas2r105: 3 µM

Reference: paper PMC10247784, “Physiological activation of human and mouse bitter taste receptors by bile acids” (Communications Biology, 2023)
